Source: publication PMC7984254 (Biochimica et biophysica acta. Molecular cell research, 2020)

What was measured:
[1] = molecular target: FGF14:Nav1.6 complex (CLuc-FGF14 and CD4-Nav1.6 C-tail-NLuc) (Homo sapiens, UniProt Q92915+Q9UQD0); experiment: cell-based; settings: for activity at 30 µM: HEK293, 2 h, read-out: % luminescence, FGF14:Nav1.6 complex (HTS); for initial dose/concentration dependency against FGF14:Nav1.6: screening library compound, Suppl. Fig. 3
[2] = test system: hippocampal CA1 pyramidal neurons; experiment: Ex vivo patch-clamp of hippocampal CA1 pyramidal neurons in brain slices; format: cell-based, mice; settings: 20 μM
Nav1.6 = experiment: Whole-cell patch-clamp electrophysiology in HEK-Nav1.6 cells; format: cell-based, human
FGF14^Y158A:Nav1.6 = FGF14^Y158A:Nav1.6 (Homo sapiens, UniProt Q92915+Q9UQD0, Y153A); experiment: LCA dose response, FGF14^Y158A:Nav1.6 mutant complex
[3] = test system: double stable HEK293 cells; experiment: CellTiter-Blue; format: cell-based; settings: 30 μM; fluorescence read after 16 h; relative to DMSO controls
[4] = molecular target: FGF14:FGF14 dimer (CLuc-FGF14 and FGF14-NLuc) (Homo sapiens, UniProt Q92915); experiment: LCA counter-screen and dose response, FGF14:FGF14 homodimer; format: cell-based; settings: plateau; normalized to 0.3% DMSO

CC(C)(O)/C=C/C(=O)[C@](C)(O)[C@H]1[C@H](O)C[C@@]2(C)[C@@H]3CC=C4[C@@H](C=C(O)C(=O)C4(C)C)[C@]3(C)C(=O)C[C@]12C [Cucurbitacin I]
activity at 30 µM [1]: 5.6%
initial dose/concentration dependency against FGF14:Nav1.6 [1]: highly potent but undesirable curve shape

Cc1ccc2c(=O)c3ccccc3n(CCCN)c2c1C.O=C(O)C(=O)O [ER 27319]
initial dose/concentration dependency against FGF14:Nav1.6 [1]: less ideal

Cc1cnc(Nc2ccc(OCCN3CCCC3)cc2)nc1Nc1cccc(S(=O)(=O)NC(C)(C)C)c1 [Fedratinib]
resting membrane potential, current threshold and voltage threshold for action potential firing ([2]; Fgf14^+/+ mice): no significant changes
maximum number of evoked action potentials (AP) ([2]; Fgf14^+/+ mice, 1 hr slice incubation): 11.3 ± 1.4
evoked action potentials ([2]; Fgf14^−/− mice, 1 hr slice incubation): 11.8 ± 2.7
V½ of activation (Nav1.6; HEK-Nav1.6 FGF14-GFP, 20 μM): −30.56 ± 1.9 mV
V½ of steady-state inactivation (Nav1.6; HEK-Nav1.6 FGF14-GFP, 20 μM): −60.8 ± 1.2 mV
decay time constant (τ) of INa (Nav1.6; HEK-Nav1.6 FGF14-GFP, 20 μM): 1.4 ± 0.06 ms
peak transient Na+ current (INa) density (Nav1.6; HEK-Nav1.6 FGF14-GFP, 20 μM): −81.27 ± 11.3 pA/pF
long-term inactivation (LTI), normalized INa at pulse 3 (Nav1.6; HEK-Nav1.6 FGF14-GFP, 30 min incubation, pulse 3): 0.89 ± 0.02%
effect on long-term inactivation (LTI) (Nav1.6; HEK-Nav1.6 FGF14^Y158A): no effect
peak transient Na+ current (INa) density (Nav1.6; HEK-Nav1.6 FGF14^Y158A-GFP, 20 μM): −26.65 ± 3.5 pA/pF
V½ of activation (Nav1.6; HEK-Nav1.6 FGF14^Y158A, 20 μM): −22.69 ± 1.2 mV
V½ of steady-state inactivation, change compared to DMSO (Nav1.6; HEK-Nav1.6 FGF14^Y158A, 20 μM): no significant change
decay time constant (τ) of INa (Nav1.6; HEK-Nav1.6 FGF14^Y158A, 20 μM): 1.8 ± 0.11 ms
peak transient Na+ current (INa) density (Nav1.6; HEK-Nav1.6 GFP (channel alone), 20 μM): −59.43 ± 6.0 pA/pF
V½ of activation (Nav1.6; HEK-Nav1.6 GFP, 20 μM): −25.7 ± 1.7 mV
V½ of steady-state inactivation (Nav1.6; HEK-Nav1.6 GFP, 20 μM): −61.7 ± 1.0 mV
decay time constant (τ) of INa (Nav1.6; HEK-Nav1.6 GFP, 20 μM): 1.3 ± 0.07 ms

N#CCNC(=O)c1ccc(-c2ccnc(Nc3ccc(N4CCOCC4)cc3)n2)cc1 [Momelotinib]
effect on FGF14^Y158A:Nav1.6 complex compared with FGF14^WT (FGF14^Y158A:Nav1.6): abolished

O=C(Nc1ccc([N+](=O)[O-])cc1Cl)c1cc(Cl)ccc1O [Niclosamide]
activity at 30 µM [1]: 18.7%

NC(=O)c1cnc(N[C@@H]2CCCC[C@@H]2N)nc1Nc1cccc(-n2nccn2)c1 [PRT062607]
initial dose/concentration dependency against FGF14:Nav1.6 [1]: promising concentration dependency

C1=C/COCc2cc(ccc2OCCN2CCCC2)Nc2nccc(n2)-c2cccc(c2)COC/1 [Pacritinib]
effect on FGF14^Y158A:Nav1.6 complex compared with FGF14^WT (FGF14^Y158A:Nav1.6): abolished

O=[N+]([O-])c1ccc2c(c1)S(=O)(=O)C=C2 [Stattic]
% fluorescence from the CTB assay (cell viability) [3]: 57.2%

Cc1cnc(Nc2ccc(N3CCN(C)CC3)cc2)nc1Nc1cccc(S(=O)(=O)NC(C)(C)C)c1 [TG101209]
FGF14:FGF14^WT IMin/EMax [4]: 150.6 percent luminescence
FGF14^Y158A:Nav1.6 IMin/EMax (FGF14^Y158A:Nav1.6; plateau, normalized to 0.3% DMSO): 78.0 percent luminescence

C[C@H]1[C@H](C)CC[C@]2(C(=O)O)CC[C@]3(C)C(=CC[C@@H]4[C@@]5(C)CC[C@H](O)C(C)(C)[C@@H]5CC[C@]43C)[C@H]12 [Ursolic Acid]
activity at 30 µM [1]: 104%
